Several values for one entry are separate records, joined by “and”; a condition that tells them apart may be missing. Equal entries are not always repeated.
How the values were obtained:
Assay in all cases: cells
COLO-741 = format: functional, cell-based, Homo sapiens
Description: SANGER: Inhibition of human COLO-741 cell growth in a cell viability assay.

COLO-800 = format: functional, cell-based, Homo sapiens
Description: SANGER: Inhibition of human COLO-800 cell growth in a cell viability assay.

CP66-MEL = format: functional, cell-based, Homo sapiens
Description: SANGER: Inhibition of human CP66-MEL cell growth in a cell viability assay.

DBTRG-05MG = format: functional, cell-based, Homo sapiens
Description: SANGER: Inhibition of human DBTRG-05MG cell growth in a cell viability assay.

DU-4475 = format: functional, cell-based; details: Homo sapiens
Description: SANGER: Inhibition of human DU-4475 cell growth in a cell viability assay.

EFO-27 = format: functional, cell-based, Homo sapiens
Description: SANGER: Inhibition of human EFO-27 cell growth in a cell viability assay.

GB-1 = format: functional, cell-based, Homo sapiens
Description: SANGER: Inhibition of human GB-1 cell growth in a cell viability assay.

GP5d = format: functional, cell-based, Homo sapiens
Description: SANGER: Inhibition of human GP5d cell growth in a cell viability assay.

HAL-01 = format: functional, cell-based; details: Homo sapiens
Description: SANGER: Inhibition of human HAL-01 cell growth in a cell viability assay.

HCC2157 = format: functional, cell-based; details: Homo sapiens
Description: SANGER: Inhibition of human HCC2157 cell growth in a cell viability assay.

HDLM-2 = format: functional, cell-based; details: Homo sapiens
Description: SANGER: Inhibition of human HDLM-2 cell growth in a cell viability assay.

HT-1080 = format: functional, cell-based, Homo sapiens
Description: SANGER: Inhibition of human HT-1080 cell growth in a cell viability assay.

KNS-81-FD = format: functional, cell-based, Homo sapiens
Description: SANGER: Inhibition of human KNS-81-FD cell growth in a cell viability assay.

KP-N-YN = format: functional, cell-based; details: Homo sapiens
Description: SANGER: Inhibition of human KP-N-YN cell growth in a cell viability assay.

KU-19-19 = format: functional, cell-based, Homo sapiens
Description: SANGER: Inhibition of human KU-19-19 cell growth in a cell viability assay.

KYSE-140 = format: functional, cell-based, Homo sapiens
Description: SANGER: Inhibition of human KYSE-140 cell growth in a cell viability assay.

KYSE-510 = format: functional, cell-based, Homo sapiens
Description: SANGER: Inhibition of human KYSE-510 cell growth in a cell viability assay.

LC-2-ad = format: functional, cell-based, Homo sapiens
Description: SANGER: Inhibition of human LC-2-ad cell growth in a cell viability assay.

LK-2 = format: functional, cell-based, Homo sapiens
Description: SANGER: Inhibition of human LK-2 cell growth in a cell viability assay.

LU-139 = format: functional, cell-based; details: Homo sapiens
Description: SANGER: Inhibition of human LU-139 cell growth in a cell viability assay.

M059J = format: functional, cell-based, Homo sapiens
Description: SANGER: Inhibition of human M059J cell growth in a cell viability assay.

MC-IXC = format: functional, cell-based, Homo sapiens
Description: SANGER: Inhibition of human MC-IXC cell growth in a cell viability assay.

MeWo = format: functional, cell-based, Homo sapiens
Description: SANGER: Inhibition of human Mewo cell growth in a cell viability assay.

Mo = format: functional, cell-based; details: Homo sapiens
Description: SANGER: Inhibition of human Mo-T cell growth in a cell viability assay.

NB12 = format: functional, cell-based, Homo sapiens
Description: SANGER: Inhibition of human NB12 cell growth in a cell viability assay.

NB7 = format: functional, cell-based; details: Homo sapiens
Description: SANGER: Inhibition of human NB7 cell growth in a cell viability assay.

NCI-H1304 = format: functional, cell-based; details: Homo sapiens
Description: SANGER: Inhibition of human NCI-H1304 cell growth in a cell viability assay.

NCI-H1563 = format: functional, cell-based, Homo sapiens
Description: SANGER: Inhibition of human NCI-H1563 cell growth in a cell viability assay.

NEC8 = format: functional, cell-based, Homo sapiens
Description: SANGER: Inhibition of human NEC8 cell growth in a cell viability assay.

NH-12 = format: functional, cell-based, Homo sapiens
Description: SANGER: Inhibition of human NH-12 cell growth in a cell viability assay.

OE33 = format: functional, cell-based, Homo sapiens
Description: SANGER: Inhibition of human OE33 cell growth in a cell viability assay.

OS-RC-2 = format: functional, cell-based, Homo sapiens
Description: SANGER: Inhibition of human OS-RC-2 cell growth in a cell viability assay.

OVCAR-5 = format: functional, cell-based, Homo sapiens
Description: SANGER: Inhibition of human OVCAR-5 cell growth in a cell viability assay.

PA-1 = format: functional, cell-based, Homo sapiens
Description: SANGER: Inhibition of human PA-1 cell growth in a cell viability assay.

PSN1 = format: functional, cell-based, Homo sapiens
Description: SANGER: Inhibition of human PSN1 cell growth in a cell viability assay.

RVH-421 = format: functional, cell-based, Homo sapiens
Description: SANGER: Inhibition of human RVH-421 cell growth in a cell viability assay.

SCC-4 = format: functional, cell-based, Homo sapiens
Description: SANGER: Inhibition of human SCC-4 cell growth in a cell viability assay.

SCH = format: functional, cell-based, Homo sapiens
Description: SANGER: Inhibition of human SCH cell growth in a cell viability assay.

SK-HEP1 = format: functional, cell-based, Homo sapiens, SK-HEP-1
Description: SANGER: Inhibition of human SK-HEP-1 cell growth in a cell viability assay.

SK-LMS-1 = format: functional, cell-based, Homo sapiens
Description: SANGER: Inhibition of human SK-LMS-1 cell growth in a cell viability assay.

SK-OV-3 = format: functional, cell-based, Homo sapiens
Description: SANGER: Inhibition of human SK-OV-3 cell growth in a cell viability assay.

SN12C = format: functional, cell-based, Homo sapiens
Description: SANGER: Inhibition of human SN12C cell growth in a cell viability assay.

ACN = format: functional, cell-based, Homo sapiens
Description: SANGER: Inhibition of human ACN cell growth in a cell viability assay.

AN3-CA = format: functional, cell-based; details: Homo sapiens
Description: SANGER: Inhibition of human AN3-CA cell growth in a cell viability assay.

BV-173 = format: functional, cell-based; details: Homo sapiens
Description: SANGER: Inhibition of human BV-173 cell growth in a cell viability assay.

CAL-33 = format: functional, cell-based, Homo sapiens
Description: SANGER: Inhibition of human CAL-33 cell growth in a cell viability assay.

CAL-39 = format: functional, cell-based, Homo sapiens
Description: SANGER: Inhibition of human CAL-39 cell growth in a cell viability assay.

CAL-54 = format: functional, cell-based, Homo sapiens
Description: SANGER: Inhibition of human CAL-54 cell growth in a cell viability assay.

TE-12 = format: functional, cell-based; details: Homo sapiens
Description: SANGER: Inhibition of human TE-12 cell growth in a cell viability assay.

TE-5 = format: functional, cell-based, Homo sapiens
Description: SANGER: Inhibition of human TE-5 cell growth in a cell viability assay.

WM-115 = format: functional, cell-based, Homo sapiens
Description: SANGER: Inhibition of human WM-115 cell growth in a cell viability assay.

CAPAN-1 = format: functional, cell-based, Homo sapiens
Description: SANGER: Inhibition of human CAPAN-1 cell growth in a cell viability assay.

## Cc1cc([C@@H](C)Nc2ccccc2C(=O)O)c2nc(N3CCOCC3)cc(=O)n2c1 [AZD-6482]
COLO-741; colo-741
  IC50: > 5120 nM
COLO-800; colo-800
  IC50: > 5120 nM
CP66-MEL; Homo sapiens, CP66-MEL
  IC50: > 5120 nM
CP66-MEL; cp66-mel
  IC50: > 5120 nM
DBTRG-05MG; dbtrg-05mg
  IC50: > 5120 nM
DU-4475
  IC50: > 5120 nM
EFO-27; Homo sapiens, EFO-27
  IC50: > 5120 nM
EFO-27; efo-27
  IC50: > 5120 nM
GB-1; gb-1
  IC50: > 5120 nM
GP5d; Homo sapiens, GP5d
  IC50: > 5120 nM
GP5d; gp5d
  IC50: > 5120 nM
HAL-01
  IC50: 1300 nM
HCC2157
  IC50: 3960 nM
HDLM-2
  IC50: > 5120 nM
HT-1080; ht-1080
  IC50: > 5120 nM
KNS-81-FD; kns-81-fd
  IC50: > 5120 nM
KP-N-YN
  IC50: > 5120 nM
KU-19-19; ku-19-19
  IC50: > 5120 nM
KYSE-140; kyse-140
  IC50: > 5120 nM
KYSE-510; Homo sapiens, KYSE-510
  IC50: > 5120 nM
KYSE-510; kyse-510
  IC50: > 5120 nM
LC-2-ad; lc-2-ad
  IC50: > 5120 nM
LK-2; lk-2
  IC50: > 5120 nM
LU-139
  IC50: > 5120 nM
M059J; Homo sapiens, M059J
  IC50: > 5120 nM
M059J; m059j
  IC50: > 5120 nM
MC-IXC; Homo sapiens, MC-IXC
  IC50: > 5120 nM
MC-IXC; mc-ixc
  IC50: > 5120 nM
MeWo; mewo
  IC50: > 5120 nM and 3170 nM
Mo
  IC50: > 5120 nM
NB12; nb12
  IC50: 1550 nM and > 5120 nM
NB7
  IC50: > 5120 nM
NCI-H1304
  IC50: > 5120 nM
NCI-H1563; Homo sapiens, NCI-H1563
  IC50: > 5120 nM
NCI-H1563; nci-h1563
  IC50: > 5120 nM
NEC8; nec8
  IC50: > 5120 nM and 3810 nM
NH-12; Homo sapiens, NH-12
  IC50: > 5120 nM
NH-12; nh-12
  IC50: > 5120 nM
OE33; oe33
  IC50: > 5120 nM
OS-RC-2; os-rc-2
  IC50: 624 nM and > 5120 nM
OVCAR-5; ovcar-5
  IC50: > 5120 nM
PA-1; pa-1
  IC50: > 5120 nM and 2430 nM
PSN1; psn1
  IC50: > 5120 nM
RVH-421; rvh-421
  IC50: > 5120 nM
SCC-4; scc-4
  IC50: > 5120 nM
SCH; sch
  IC50: > 5120 nM
SK-HEP1; Homo sapiens, SK-HEP1
  IC50: > 5120 nM
SK-HEP1; sk-hep-1
  IC50: > 5120 nM
SK-LMS-1; Homo sapiens, SK-LMS-1
  IC50: 3070 nM
SK-LMS-1; sk-lms-1
  IC50: 4620 nM
SK-OV-3; sk-ov-3
  IC50: 1200 nM and 4670 nM
SN12C; sn12c
  IC50: > 5120 nM
ACN; Homo sapiens, ACN
  IC50: > 5120 nM
ACN; acn
  IC50: > 5120 nM
AN3-CA
  IC50: 3590 nM
BV-173
  IC50: > 5120 nM
CAL-33; Homo sapiens, CAL-33
  IC50: 1490 nM
CAL-33; cal-33
  IC50: 2550 nM
CAL-39; cal-39
  IC50: 2000 nM and > 5120 nM
CAL-54; cal-54
  IC50: > 5120 nM and 1250 nM
TE-12
  IC50: > 5120 nM
TE-5; Homo sapiens, TE-5
  IC50: > 5120 nM
TE-5; te-5
  IC50: > 5120 nM
WM-115; wm-115
  IC50: > 5120 nM
CAPAN-1; capan-1
  IC50: > 5120 nM

## C=CCNC1=C2C[C@@H](C)C[C@H](OC)[C@H](O)[C@@H](C)/C=C(\C)[C@H](OC(N)=O)[C@@H](OC)/C=C\C=C(/C)C(=O)NC(=CC1=O)C2=O [TANESPIMYCIN]
COLO-741; Homo sapiens, COLO-741
  IC50: > 1000 nM
COLO-800; Homo sapiens, COLO-800
  IC50: 258 nM
CP66-MEL; Homo sapiens, CP66-MEL
  IC50: 610 nM
DBTRG-05MG; Homo sapiens, DBTRG-05MG
  IC50: 581 nM
DU-4475
  IC50: 22.6 nM
EFO-27; Homo sapiens, EFO-27
  IC50: 100 nM
GB-1; Homo sapiens, GB-1
  IC50: > 1000 nM
GP5d; Homo sapiens, GP5d
  IC50: 141 nM
HAL-01
  IC50: > 1000 nM
HCC2157
  IC50: 388 nM
HDLM-2
  IC50: > 1000 nM
HT-1080; Homo sapiens, HT-1080
  IC50: 84.4 nM
KNS-81-FD; Homo sapiens, KNS-81-FD
  IC50: 184 nM
KP-N-YN
  IC50: > 1000 nM
KU-19-19; Homo sapiens, KU-19-19
  IC50: > 1000 nM
KYSE-140; Homo sapiens, KYSE-140
  IC50: > 1000 nM
KYSE-510; Homo sapiens, KYSE-510
  IC50: 46.5 nM
LC-2-ad; Homo sapiens, LC-2-ad
  IC50: 141 nM
LK-2; Homo sapiens, LK-2
  IC50: 183 nM
LU-139
  IC50: > 1000 nM
M059J; Homo sapiens, M059J
  IC50: 90.3 nM
MC-IXC; Homo sapiens, MC-IXC
  IC50: > 1000 nM
MeWo; Homo sapiens, MeWo
  IC50: 149 nM
Mo
  IC50: > 1000 nM
NB12; Homo sapiens, NB12
  IC50: > 1000 nM
NB7
  IC50: > 1000 nM
NCI-H1304
  IC50: > 1000 nM
NCI-H1563; Homo sapiens, NCI-H1563
  IC50: 949 nM
NEC8; Homo sapiens, NEC8
  IC50: > 1000 nM
NH-12; Homo sapiens, NH-12
  IC50: > 1000 nM
OE33; Homo sapiens, OE33
  IC50: 851 nM
OS-RC-2; Homo sapiens, OS-RC-2
  IC50: 245 nM
OVCAR-5; Homo sapiens, OVCAR-5
  IC50: 34.8 nM
PA-1; Homo sapiens, PA-1
  IC50: 954 nM
PSN1; Homo sapiens, PSN1
  IC50: 46 nM
RVH-421; Homo sapiens, RVH-421
  IC50: 191 nM
SCC-4; Homo sapiens, SCC-4
  IC50: 178 nM
SCH; Homo sapiens, SCH
  IC50: > 1000 nM
SK-HEP1; Homo sapiens, SK-HEP1
  IC50: > 1000 nM
SK-LMS-1; Homo sapiens, SK-LMS-1
  IC50: > 1000 nM
SK-OV-3; Homo sapiens, SK-OV-3
  IC50: 176 nM
SN12C; Homo sapiens, SN12C
  IC50: 101 nM
ACN; Homo sapiens, ACN
  IC50: 41.6 nM
AN3-CA
  IC50: 50 nM
BV-173
  IC50: 687 nM
CAL-33; Homo sapiens, CAL-33
  IC50: > 1000 nM
CAL-39; Homo sapiens, CAL-39
  IC50: 77.7 nM
CAL-54; Homo sapiens, CAL-54
  IC50: > 1000 nM
TE-12
  IC50: > 1000 nM
TE-5; Homo sapiens, TE-5
  IC50: > 1000 nM
WM-115; Homo sapiens, WM-115
  IC50: 37.6 nM
CAPAN-1; Homo sapiens, CAPAN-1
  IC50: 248 nM

— ChEMBL document CHEMBL1201861, “Genomics of Drug Sensitity in Cancer screening data, Wellcome Trust Sanger Institute”
